Measured values published in PMC11887051, “Discovery of ONO-2920632 (VU6011887): A Highly Selective and CNS Penetrant TREK-2 (TWIK-Related K+ Channel 2) Preferring Activator In Vivo Tool Compound” (ACS Chemical Neuroscience, 2025).
“Also recorded” adds a separate entry of the source.

Assays:
[1] = target: T1, TRESK (Homo sapiens, UniProt Q7Z418); test: human 86Rb flux K2P selectivity panel; format: cell-based; settings: 86Rb flux K2P panel; for activity at TRESK: data is not shown
T1 sequence (Q7Z418 1-384): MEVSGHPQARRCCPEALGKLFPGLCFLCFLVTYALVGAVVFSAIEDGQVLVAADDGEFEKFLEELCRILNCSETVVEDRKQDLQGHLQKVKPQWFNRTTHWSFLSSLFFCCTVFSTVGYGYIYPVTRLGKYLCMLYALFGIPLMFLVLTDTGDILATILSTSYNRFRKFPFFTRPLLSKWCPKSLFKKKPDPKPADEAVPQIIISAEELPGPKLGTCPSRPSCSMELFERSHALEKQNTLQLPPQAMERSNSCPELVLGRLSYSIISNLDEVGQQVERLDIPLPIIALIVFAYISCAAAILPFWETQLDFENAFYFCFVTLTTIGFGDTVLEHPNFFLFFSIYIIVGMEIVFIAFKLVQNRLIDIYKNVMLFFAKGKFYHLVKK

[2] = target: T2, TREK-2 (Homo sapiens, UniProt P57789); test: human TREK-2 MPC assay; format: cell-based; design: expressed in transfected cells; host or cells: HEK293
T2 sequence (P57789 1-538): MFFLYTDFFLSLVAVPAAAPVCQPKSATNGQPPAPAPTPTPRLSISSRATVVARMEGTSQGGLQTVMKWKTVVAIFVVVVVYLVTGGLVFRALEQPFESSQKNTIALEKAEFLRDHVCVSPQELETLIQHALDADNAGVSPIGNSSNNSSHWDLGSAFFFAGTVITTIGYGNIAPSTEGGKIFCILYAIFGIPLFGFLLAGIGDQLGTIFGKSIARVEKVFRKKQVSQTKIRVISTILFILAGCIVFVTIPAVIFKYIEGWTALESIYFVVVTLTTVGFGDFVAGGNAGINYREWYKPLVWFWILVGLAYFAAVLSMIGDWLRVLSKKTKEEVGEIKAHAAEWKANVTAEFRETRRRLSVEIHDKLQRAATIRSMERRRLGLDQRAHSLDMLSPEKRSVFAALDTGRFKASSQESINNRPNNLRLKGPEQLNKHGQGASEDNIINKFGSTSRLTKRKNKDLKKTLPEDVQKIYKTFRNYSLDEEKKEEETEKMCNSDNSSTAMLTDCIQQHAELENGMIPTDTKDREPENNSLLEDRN

[3] = target: Adrenergic β2 (Homo sapiens, UniProt P07550); test: Eurofins Lead Profiling radioligand binding; settings: title: 30 μM
[4] = rat PO PK study; format: in vivo; settings: male, Sprague-Dawley, 3 mg/kg PO
Protocol: Plasma and brain tissue samples originating from in vivo studies were analyzed by electrospray ionization using an AB Sciex Q-TRAP 5500 (Foster City, CA) that was coupled to a Shimadzu LC-20AD pump (Columbia, MD) and a Leap Technologies CTC PAL auto-sampler (Carrboro, NC). Analytes were separated by gradient elution using a C18 column (3 x 50 mm, 3 mm; Fortis Technologies Ltd, Cheshire, UK) that was thermostated at 40 °C. HPLC mobile phase A was 0.1% formic acid in water (pH unadjusted); mobile phase B was 0.1% formic acid in acetonitrile (pH […]
min, with an isocratic hold for 0.5 min, before transitioning to 10% B over 0.05 min. The column was re-equilibrated (1 min) before the next sample injection. The total run time was 2.55 min, and the HPLC flow rate was 0.5 ml/min. The source temperature was set at 500 °C, and mass spectral analyses were performed using a Turbo-Ion spray source in positive ionization mode (5.0-kV spray voltage) and using multiple-reaction monitoring of transitions specific for the analytes. All data were analyzed using AB Sciex Analyst 1.5.1 software.
Brain plasma concentration ratio (Kp) was calculated by dividing brain concentration by plasma concentration for each animal. Unbound brain to unbound plasma concentration ratio (Kp,uu) is calculated using the following formula: Kp,uu = (Brain ng/g x brain fu)/(plasma ng/ml x plasma fu).
For determination of the plasma concentration-time profile, compounds were formulated in methyl cellulose and administered as a 3 mg/kg PO dose to male C57BL/6 mouse or SD rat (n = 2). For the same determination, compounds were formulated in HP-β-CD and administered as a 0.1 mg/kg IV dose to male beagle dog (n = 2).
Plasma samples originating from in vivo studies were analyzed by electrospray ionization using a Q-TRAP 5500 (AB Sciex) that was coupled to a Prominence UFLC XR (Shimadzu Corporation).
Analytes were separated by gradient elution using a Shim-pack XR-ODS II (2 x 75 mm, 2.2μm, Shimadzu Corporation) that was thermostated at 40 °C. HPLC mobile phase A was 5 mM ammonium acetate containing 0.2% formic acid in water (pH unadjusted); mobile phase B was […]
hold for 1.5 min, before transitioning to 10% B over 0.1 min. The column was re-equilibrated (0.9 min) before the next sample injection. The total run time was 4.0 min, and the HPLC flow rate was 0.5 ml/min. The source temperature was set at 600 °C, and mass spectral analyses were performed using a Turbo-Ion spray source in positive ionization mode and using multiple-reaction

[5] = target: Adrenergic α1D (Homo sapiens, UniProt P25100); test: Eurofins Lead Profiling radioligand binding; settings: title: 30 μM
[6] = target: Adenosine A3 (Homo sapiens, UniProt P0DMS8); test: Eurofins Lead Profiling radioligand binding; settings: title: 30 μM
[7] = target: Muscarinic M2 (Homo sapiens, UniProt P08172); test: Eurofins Lead Profiling radioligand binding; settings: title: 30 μM
[8] = test system: 72 GPCRs, ion channels and transporters; test: Eurofins Lead Profiling panel (whole panel); format: binding; settings: for ancillary pharmacology panel result: 72 GPCRs, ion channels and transporters
[9] = target: Leukotriene, Cysteinyl CysLT1 (Homo sapiens, UniProt Q9Y271); test: Eurofins Lead Profiling radioligand binding; settings: title: 30 μM
Leukotriene, Cysteinyl CysLT1, sequence (Q9Y271 whole entry): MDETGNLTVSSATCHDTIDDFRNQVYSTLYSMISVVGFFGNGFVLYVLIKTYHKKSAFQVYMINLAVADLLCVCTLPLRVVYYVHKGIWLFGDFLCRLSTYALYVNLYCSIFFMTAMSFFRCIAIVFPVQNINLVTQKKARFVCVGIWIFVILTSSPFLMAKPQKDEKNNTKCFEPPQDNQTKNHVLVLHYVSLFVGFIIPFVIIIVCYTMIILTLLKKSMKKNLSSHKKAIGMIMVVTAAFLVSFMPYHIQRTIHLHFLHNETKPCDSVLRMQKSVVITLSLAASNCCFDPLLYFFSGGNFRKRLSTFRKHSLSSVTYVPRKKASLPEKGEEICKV

Adrenergic α1D, sequence (P25100 whole entry): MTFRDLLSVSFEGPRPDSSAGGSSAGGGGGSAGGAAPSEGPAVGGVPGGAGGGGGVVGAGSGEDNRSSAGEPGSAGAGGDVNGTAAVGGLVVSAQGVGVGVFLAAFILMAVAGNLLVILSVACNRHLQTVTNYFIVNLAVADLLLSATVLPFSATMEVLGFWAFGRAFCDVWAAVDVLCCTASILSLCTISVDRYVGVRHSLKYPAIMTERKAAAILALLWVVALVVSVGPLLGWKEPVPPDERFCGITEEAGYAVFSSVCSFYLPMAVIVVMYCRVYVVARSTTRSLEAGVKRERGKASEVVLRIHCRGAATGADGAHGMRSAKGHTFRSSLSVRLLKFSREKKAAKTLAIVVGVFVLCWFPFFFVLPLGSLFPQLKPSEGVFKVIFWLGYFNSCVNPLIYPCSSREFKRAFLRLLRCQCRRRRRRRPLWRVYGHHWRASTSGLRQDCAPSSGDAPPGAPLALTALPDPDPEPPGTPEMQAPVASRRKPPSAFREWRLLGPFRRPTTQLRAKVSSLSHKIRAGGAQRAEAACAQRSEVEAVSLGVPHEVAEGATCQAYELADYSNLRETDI
Adenosine A3, sequence (P0DMS8 whole entry): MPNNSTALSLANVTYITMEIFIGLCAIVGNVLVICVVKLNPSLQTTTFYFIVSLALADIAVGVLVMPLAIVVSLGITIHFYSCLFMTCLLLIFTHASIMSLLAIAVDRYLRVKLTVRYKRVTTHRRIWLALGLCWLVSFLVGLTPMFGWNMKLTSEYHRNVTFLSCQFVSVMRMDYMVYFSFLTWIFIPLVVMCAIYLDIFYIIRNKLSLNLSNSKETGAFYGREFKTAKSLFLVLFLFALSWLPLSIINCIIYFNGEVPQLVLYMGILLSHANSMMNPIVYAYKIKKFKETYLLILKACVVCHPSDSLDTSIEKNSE
Adrenergic β2, sequence (P07550 whole entry): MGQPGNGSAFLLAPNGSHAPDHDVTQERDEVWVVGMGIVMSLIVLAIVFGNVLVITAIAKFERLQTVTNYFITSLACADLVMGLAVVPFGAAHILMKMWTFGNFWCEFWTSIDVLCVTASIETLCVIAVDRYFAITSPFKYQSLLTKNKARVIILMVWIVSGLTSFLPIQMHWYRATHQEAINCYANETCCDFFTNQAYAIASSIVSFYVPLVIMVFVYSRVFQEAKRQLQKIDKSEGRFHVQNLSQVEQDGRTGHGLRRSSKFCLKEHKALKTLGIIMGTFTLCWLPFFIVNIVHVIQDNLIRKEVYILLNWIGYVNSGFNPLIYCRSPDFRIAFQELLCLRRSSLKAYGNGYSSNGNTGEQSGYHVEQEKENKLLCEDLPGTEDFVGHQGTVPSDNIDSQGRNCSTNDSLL
Muscarinic M2, sequence (P08172 whole entry): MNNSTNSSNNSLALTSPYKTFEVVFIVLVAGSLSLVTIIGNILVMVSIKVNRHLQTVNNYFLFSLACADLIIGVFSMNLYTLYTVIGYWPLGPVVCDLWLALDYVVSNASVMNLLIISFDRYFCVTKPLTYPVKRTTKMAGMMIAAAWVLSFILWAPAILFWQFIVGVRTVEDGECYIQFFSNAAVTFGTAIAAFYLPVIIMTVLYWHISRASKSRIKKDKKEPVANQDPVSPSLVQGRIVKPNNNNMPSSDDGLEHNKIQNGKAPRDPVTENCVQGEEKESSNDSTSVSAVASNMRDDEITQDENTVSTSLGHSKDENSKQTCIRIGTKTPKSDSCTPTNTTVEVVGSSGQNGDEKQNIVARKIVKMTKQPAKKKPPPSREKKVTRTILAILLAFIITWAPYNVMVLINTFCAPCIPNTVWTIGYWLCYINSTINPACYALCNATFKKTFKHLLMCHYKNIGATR

| Structure (SMILES) | activity at TRESK [1] | EC50 [2] [nM] | Emax [2] [%] | selectivity against TRESK over TREK-2 [1] [fold] | inhibition [3] [%] | concentration at 2 h ([4]; brain, 2 h, read-out: total brain concentration) [nM] | concentration at 24 h ([4]; brain, 24 h, read-out: total brain concentration) [nM] | Cmax ([4]; plasma) [nM] | Tmax ([4]; plasma) [h] | half-life ([4]; plasma) [h] | inhibition at 10 µM [5] [%] | inhibition [6] [%] | inhibition [7] [%] | displacement of any radioligand in the panel ([8]; 30 μM, 72 targets) [%] | ancillary pharmacology panel result [8] | ancillary pharmacology panel result ([8]; listed as ONO-2920632) | inhibition [9] [%] |
| --- | --- | --- | --- | --- | --- | --- | --- | --- | --- | --- | --- | --- | --- | --- | --- | --- | --- |
| O=C(NCc1ccc(OC(F)(F)F)cc1Cl)c1ccc2nncn2c1 [Compound 20] | micromolar inhibitor activity; also recorded: micromolar inhibitory activity | 190 | 142 |  |  |  |  |  |  |  |  |  |  |  |  |  |  |
| O=C(NCc1ccc(OC(F)(F)F)cc1F)c1ccc2ncnn2c1 [Compound 19b] | micromolar inhibitor activity |  |  | 31 | 2 | 2680 | 2890 | 10300 | 7 | > 24 | 4 | 21 | -3 | ≤ 50 | clean ancillary pharmacology | no significant activity | 5 |
